The source of these data is ChEMBL document CHEMBL5465560, “Selectivity Literature for EUbOPEN Chemogenomic Library” (2024).

For test [1], the target named is DNA (cytosine-5)-methyltransferase 3A (Homo sapiens) (UniProt Q9Y6K1). The test is described as follows: Selectivity interaction (Methyltransferase screen (Scintillation proximity assays)) EUB0000255b DNMT3A.
The target of a further test is Focal adhesion kinase 1 (Homo sapiens, UniProt Q05397). Briefly: Selectivity interaction (ActivX KiNativ screen (ex vivo kinase selectivity in human PBMCs)) EUB0001619a PTK2. Type of test: cell-based. The settings on record: PBMC, at 1 µM.
The target of test [2] is T1, Serine/threonine-protein kinase Chk1 (Homo sapiens) (UniProt O14757).
T1 sequence (whole entry): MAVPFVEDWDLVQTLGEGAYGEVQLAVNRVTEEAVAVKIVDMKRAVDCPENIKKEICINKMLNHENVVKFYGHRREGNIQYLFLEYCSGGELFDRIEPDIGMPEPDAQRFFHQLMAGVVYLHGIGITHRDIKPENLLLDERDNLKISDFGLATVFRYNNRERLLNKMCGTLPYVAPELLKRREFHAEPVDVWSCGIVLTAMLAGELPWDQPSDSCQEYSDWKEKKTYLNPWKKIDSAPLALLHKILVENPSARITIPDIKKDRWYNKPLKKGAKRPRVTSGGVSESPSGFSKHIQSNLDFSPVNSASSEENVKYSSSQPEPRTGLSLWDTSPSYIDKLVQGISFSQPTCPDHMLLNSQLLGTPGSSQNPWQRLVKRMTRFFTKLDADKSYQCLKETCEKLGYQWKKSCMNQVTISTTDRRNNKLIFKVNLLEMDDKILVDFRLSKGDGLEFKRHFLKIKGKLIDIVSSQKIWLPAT
Briefly: Selectivity interaction (SelectScreen profiling (Invitrogen)) EUB0000607a CHEK1. The settings on record: at 2 µM.

Test [3] has as its target Tyrosine-protein kinase Fgr (Homo sapiens) (UniProt P09769). The test is described as follows: Selectivity interaction (SelectScreen profiling (Invitrogen)) EUB0000607a FGR. Conditions: at 2 µM.
The target of test [4] is T2, Mitogen-activated protein kinase kinase kinase 2 (Homo sapiens) (UniProt Q9Y2U5).
T2 sequence (whole entry): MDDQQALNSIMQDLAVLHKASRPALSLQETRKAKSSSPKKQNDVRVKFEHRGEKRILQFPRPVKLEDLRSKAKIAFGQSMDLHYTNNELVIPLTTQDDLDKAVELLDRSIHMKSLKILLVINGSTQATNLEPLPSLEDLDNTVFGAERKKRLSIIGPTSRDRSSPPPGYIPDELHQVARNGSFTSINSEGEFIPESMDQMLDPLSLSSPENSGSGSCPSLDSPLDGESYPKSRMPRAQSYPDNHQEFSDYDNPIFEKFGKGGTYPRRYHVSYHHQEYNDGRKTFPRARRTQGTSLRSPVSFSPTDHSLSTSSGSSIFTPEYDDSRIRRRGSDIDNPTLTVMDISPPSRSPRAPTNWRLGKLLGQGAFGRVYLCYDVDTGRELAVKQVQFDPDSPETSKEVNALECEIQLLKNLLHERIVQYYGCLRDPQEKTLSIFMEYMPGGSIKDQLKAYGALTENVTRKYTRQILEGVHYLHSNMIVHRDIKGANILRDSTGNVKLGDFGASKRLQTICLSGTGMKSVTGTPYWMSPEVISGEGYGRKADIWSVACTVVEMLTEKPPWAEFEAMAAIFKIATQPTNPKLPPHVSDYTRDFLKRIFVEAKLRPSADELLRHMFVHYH
Briefly: Selectivity interaction (ActivX KiNativ screen (kinase selectivity in THP-1 cell lysates)) EUB0000639a MAP3K2. Type of test: subcellular. The settings on record: lysate, at 0.01 µM.

The target in test [5] is Serine/threonine-protein kinase MARK2 (Homo sapiens) (UniProt Q7KZI7). Briefly: Selectivity interaction (Ambit KINOMEscan and KiNATiv profiling in Jurkat cells) EUB0000090b MARK2. The test is classed as cell-based. The settings on record: at 1 µM.
In test [6] the target is Serine/threonine-protein kinase RIO2 (Homo sapiens) (UniProt Q9BVS4). The test is described as follows: Selectivity interaction (KinomeScan (DiscoverX)) EUB0001049a RIOK2. The settings on record: at 1 µM.
Test [7] addresses Nuclear receptor subfamily 1 group I member 2 (Homo sapiens, UniProt O75469). The test is described as follows: Selectivity interaction (PXR Receptor agonist/antagonist assay: TR-FRET human recombinant ) EUB0000877a NR1I2. A general note: In TR-FRET formats the signal depends on donor and acceptor labels being close together.
Test [8] has as its target ALK tyrosine kinase receptor (Homo sapiens, UniProt Q9UM73). Briefly: Selectivity interaction (KinomeScan (DiscoverX)) EUB0000618a ALK. Conditions: at 10 µM.
The target in test [9] is Receptor tyrosine-protein kinase erbB-2 (Homo sapiens, UniProt P04626). Briefly: Selectivity interaction (KinomeScan (DiscoverX)) EUB0000092b ERBB2. The settings on record: at 10 µM.
Test [10] concerns the target Tyrosine-protein kinase Fes/Fps (Homo sapiens) (UniProt P07332). Briefly: Selectivity interaction (Kinase panel (DSF assay)) EUB0001558a FES. (DSF heats the sample and reads unfolding from a dye or from intrinsic fluorescence.)
Test [11] concerns the target Activin receptor type-1-like (Homo sapiens) (UniProt P37023). Briefly: Selectivity interaction (KinomeScan (DiscoverX)) EUB0001079a ACVRL1. The settings on record: at 1 µM.
In test [12] the target is Alpha-2B adrenergic receptor (Homo sapiens) (UniProt P18089). The test is described as follows: Selectivity interaction (GPCR panel (PDSP screen)) EUB0001079a ADRA2B. Conditions: at 10 µM.
In test [13] the target is Casein kinase I isoform alpha (Homo sapiens, UniProt P48729). The test is described as follows: Selectivity interaction (KinomeScan (DiscoverX)) EUB0000229b CSNK1A1. Conditions: at 10 µM.
Test [14] addresses T3, STE20-related kinase adapter protein alpha (Homo sapiens) (UniProt Q7RTN6).
T3 sequence (whole entry): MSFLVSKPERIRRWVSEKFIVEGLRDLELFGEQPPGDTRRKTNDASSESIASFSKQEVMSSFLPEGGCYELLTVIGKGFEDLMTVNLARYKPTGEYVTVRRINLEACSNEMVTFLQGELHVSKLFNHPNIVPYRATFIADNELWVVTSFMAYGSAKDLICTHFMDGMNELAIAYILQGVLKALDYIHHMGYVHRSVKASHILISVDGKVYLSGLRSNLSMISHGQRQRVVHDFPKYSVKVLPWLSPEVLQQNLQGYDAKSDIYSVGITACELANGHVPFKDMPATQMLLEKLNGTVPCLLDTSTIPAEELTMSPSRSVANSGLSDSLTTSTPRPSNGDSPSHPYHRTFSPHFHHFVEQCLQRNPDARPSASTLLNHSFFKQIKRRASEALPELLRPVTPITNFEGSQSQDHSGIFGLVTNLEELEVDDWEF
Briefly: Selectivity interaction (Kinase panel (KiNativ target engagement assay in Jurkat cells)) EUB0001635a STRADA. The test is classed as cell-based. The settings on record: Selectivity number of off-targets 0.0, Selectivity number of targets 233.0, Source Knowledge https://www.sciencedirect.com/science/article/pii/S2451945619300674?via%3Dihub, at 1 µM.

pIC50: −log10 of the molar value.

Chain of DNA (cytosine-5)-methyltransferase 3A (Homo sapiens) (Q9Y6K1 whole entry, looked up): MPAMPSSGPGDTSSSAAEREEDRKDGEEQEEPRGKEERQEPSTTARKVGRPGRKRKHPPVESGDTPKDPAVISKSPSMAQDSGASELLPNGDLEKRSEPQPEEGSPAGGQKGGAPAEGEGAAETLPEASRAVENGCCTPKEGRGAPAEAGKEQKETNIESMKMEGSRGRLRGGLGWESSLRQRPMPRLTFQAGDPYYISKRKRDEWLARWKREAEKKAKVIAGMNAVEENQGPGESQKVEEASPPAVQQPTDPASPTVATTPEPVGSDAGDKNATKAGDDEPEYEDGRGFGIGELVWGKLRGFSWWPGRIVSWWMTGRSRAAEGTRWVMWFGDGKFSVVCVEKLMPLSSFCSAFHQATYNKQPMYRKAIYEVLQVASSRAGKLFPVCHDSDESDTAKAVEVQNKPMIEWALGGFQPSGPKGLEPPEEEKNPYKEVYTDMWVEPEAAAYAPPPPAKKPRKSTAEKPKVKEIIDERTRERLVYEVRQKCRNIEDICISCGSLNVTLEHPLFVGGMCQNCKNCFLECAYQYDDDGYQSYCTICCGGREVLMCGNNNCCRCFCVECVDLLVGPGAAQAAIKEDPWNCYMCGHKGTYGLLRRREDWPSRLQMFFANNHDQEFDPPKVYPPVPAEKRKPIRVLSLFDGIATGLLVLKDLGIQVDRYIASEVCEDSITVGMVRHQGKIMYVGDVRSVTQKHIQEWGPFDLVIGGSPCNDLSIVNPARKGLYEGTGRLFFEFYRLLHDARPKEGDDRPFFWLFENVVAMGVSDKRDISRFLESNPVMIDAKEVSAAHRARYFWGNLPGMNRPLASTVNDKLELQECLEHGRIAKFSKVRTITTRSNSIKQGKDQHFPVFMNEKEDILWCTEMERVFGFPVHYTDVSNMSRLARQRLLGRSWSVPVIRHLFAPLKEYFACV
Chain of Nuclear receptor subfamily 1 group I member 2 (O75469 whole entry): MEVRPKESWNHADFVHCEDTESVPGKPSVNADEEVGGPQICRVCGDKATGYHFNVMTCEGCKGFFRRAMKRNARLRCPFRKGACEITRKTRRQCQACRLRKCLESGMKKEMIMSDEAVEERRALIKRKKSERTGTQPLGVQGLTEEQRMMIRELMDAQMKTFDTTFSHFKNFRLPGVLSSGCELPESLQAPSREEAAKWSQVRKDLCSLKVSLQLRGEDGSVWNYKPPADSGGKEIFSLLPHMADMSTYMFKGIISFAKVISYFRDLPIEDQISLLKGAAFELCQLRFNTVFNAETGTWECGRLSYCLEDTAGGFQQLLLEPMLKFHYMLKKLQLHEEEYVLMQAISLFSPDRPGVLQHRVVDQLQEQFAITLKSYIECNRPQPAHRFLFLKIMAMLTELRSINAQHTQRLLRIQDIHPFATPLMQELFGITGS
Chain of ALK tyrosine kinase receptor (Q9UM73 19-1620 limits assumed): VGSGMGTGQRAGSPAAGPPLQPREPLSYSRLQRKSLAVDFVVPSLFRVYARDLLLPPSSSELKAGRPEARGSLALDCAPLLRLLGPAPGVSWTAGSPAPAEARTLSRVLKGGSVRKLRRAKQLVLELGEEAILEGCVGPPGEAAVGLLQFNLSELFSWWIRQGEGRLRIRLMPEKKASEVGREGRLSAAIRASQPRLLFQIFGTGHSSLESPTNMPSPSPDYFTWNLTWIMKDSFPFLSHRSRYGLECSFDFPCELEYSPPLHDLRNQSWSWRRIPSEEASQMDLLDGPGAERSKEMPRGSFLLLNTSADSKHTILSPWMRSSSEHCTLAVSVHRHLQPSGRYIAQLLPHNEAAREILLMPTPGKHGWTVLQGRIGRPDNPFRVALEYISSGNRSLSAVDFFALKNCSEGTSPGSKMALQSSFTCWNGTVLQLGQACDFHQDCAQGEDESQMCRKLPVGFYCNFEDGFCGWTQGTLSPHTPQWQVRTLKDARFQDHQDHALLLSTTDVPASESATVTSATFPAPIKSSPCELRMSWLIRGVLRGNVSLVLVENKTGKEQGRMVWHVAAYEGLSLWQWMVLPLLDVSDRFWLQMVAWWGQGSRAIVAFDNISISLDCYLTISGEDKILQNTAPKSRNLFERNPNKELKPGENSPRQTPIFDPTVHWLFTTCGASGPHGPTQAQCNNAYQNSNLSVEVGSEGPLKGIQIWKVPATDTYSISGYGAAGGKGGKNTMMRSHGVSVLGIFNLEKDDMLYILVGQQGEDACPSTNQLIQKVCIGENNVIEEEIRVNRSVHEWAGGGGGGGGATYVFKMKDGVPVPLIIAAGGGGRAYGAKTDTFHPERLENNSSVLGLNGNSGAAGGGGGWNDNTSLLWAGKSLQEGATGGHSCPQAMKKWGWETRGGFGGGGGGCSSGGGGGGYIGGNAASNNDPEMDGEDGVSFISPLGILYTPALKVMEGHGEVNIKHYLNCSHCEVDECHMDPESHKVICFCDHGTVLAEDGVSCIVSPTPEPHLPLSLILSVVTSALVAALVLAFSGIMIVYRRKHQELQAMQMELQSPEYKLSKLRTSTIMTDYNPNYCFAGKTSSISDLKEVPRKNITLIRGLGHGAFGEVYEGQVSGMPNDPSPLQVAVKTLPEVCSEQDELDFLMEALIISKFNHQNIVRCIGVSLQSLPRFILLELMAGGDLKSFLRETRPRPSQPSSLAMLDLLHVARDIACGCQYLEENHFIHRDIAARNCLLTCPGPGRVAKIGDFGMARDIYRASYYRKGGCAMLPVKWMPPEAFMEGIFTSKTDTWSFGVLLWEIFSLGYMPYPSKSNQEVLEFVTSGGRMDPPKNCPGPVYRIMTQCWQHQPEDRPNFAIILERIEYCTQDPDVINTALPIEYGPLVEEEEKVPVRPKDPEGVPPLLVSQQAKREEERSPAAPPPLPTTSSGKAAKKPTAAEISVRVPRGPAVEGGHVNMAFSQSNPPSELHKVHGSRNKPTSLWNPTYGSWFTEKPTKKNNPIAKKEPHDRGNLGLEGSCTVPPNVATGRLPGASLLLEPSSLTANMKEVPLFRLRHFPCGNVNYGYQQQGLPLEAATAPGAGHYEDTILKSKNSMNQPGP
Chain of Receptor tyrosine-protein kinase erbB-2 (P04626 whole entry): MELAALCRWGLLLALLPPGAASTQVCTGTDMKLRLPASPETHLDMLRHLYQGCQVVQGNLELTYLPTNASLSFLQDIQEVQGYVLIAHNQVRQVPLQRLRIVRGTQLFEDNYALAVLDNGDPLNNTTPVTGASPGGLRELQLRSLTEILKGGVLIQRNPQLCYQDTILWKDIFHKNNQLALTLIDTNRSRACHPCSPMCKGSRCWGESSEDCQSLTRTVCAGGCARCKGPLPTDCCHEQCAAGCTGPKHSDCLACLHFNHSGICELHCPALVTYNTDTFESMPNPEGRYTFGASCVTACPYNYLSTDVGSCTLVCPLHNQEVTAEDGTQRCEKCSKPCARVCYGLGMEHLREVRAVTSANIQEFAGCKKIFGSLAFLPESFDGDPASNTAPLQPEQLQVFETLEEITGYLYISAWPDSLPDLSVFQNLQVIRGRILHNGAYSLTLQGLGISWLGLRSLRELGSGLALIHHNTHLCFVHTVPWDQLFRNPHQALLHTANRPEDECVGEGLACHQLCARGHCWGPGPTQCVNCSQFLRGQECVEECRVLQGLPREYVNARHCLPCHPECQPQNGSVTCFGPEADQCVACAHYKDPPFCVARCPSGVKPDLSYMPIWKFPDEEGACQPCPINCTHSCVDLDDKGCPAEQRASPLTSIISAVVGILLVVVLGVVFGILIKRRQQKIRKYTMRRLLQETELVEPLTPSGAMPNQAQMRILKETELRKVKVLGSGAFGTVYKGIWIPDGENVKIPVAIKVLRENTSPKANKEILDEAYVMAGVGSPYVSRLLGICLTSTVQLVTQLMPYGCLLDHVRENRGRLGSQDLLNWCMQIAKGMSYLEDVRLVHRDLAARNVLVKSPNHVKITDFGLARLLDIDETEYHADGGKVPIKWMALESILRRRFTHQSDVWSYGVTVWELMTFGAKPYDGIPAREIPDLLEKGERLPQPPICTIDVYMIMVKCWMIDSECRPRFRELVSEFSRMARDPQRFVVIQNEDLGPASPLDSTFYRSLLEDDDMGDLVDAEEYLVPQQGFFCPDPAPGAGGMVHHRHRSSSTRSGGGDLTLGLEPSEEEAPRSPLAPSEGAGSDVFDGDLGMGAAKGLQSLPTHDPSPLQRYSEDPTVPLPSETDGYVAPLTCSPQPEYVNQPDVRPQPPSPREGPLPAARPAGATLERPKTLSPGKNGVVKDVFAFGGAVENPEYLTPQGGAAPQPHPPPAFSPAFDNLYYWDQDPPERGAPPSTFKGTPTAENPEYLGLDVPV
Chain of Tyrosine-protein kinase Fes/Fps (Homo sapiens) (P07332 whole entry): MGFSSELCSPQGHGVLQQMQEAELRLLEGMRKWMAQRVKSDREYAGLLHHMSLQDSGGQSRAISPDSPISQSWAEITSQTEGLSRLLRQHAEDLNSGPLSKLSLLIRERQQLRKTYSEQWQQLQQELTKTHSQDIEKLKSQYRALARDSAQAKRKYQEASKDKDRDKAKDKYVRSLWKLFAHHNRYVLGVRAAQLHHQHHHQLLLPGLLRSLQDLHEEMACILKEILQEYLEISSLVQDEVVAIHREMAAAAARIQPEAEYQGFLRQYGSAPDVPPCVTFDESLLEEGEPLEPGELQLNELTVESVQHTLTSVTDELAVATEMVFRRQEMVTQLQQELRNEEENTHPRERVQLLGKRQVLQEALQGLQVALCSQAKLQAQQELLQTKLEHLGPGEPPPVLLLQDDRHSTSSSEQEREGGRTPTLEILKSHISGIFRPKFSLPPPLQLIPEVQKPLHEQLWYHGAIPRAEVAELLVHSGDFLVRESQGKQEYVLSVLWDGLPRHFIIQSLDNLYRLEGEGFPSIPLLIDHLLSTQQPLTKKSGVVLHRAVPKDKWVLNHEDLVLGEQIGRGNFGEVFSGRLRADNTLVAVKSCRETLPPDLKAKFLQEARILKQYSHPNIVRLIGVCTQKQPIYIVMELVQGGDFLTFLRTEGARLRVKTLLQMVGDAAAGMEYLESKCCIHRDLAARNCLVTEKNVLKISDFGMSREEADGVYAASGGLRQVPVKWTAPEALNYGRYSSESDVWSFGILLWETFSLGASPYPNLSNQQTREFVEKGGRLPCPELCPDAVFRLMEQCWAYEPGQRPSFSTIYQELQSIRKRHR

Turning to `COCCN1CCC(c2cc(CN(C)C(=O)c3cccc(Oc4ccccc4)c3)ccn2)CC1`, the % activity in test [1] (at 1 µM) is above 95%; in test [1] (at 10 µM), above 85%. As to `N#Cc1cccc(-c2c[nH]c3ncnc(N4CCOCC4)c23)c1`, on Focal adhesion kinase 1, the % of inhibition came out at 11%. For the molecule `CNC(=O)Nc1ccc(-c2nc(N3CC4CCC(C3)O4)c3cnn(C4CCC5(CC4)OCCO5)c3n2)cc1`, the % of inhibition in [2] was found to be 9%; in test [3], 1%. For `CC[C@@H]1[C@H](F)C(=O)N[C@@H]1COc1nccc2cc(C(N)=O)c(OC)cc12` [ZIMLOVISERTIB], the % of inhibition in [4] worked out at 8.7%. As for `CN(C)C/C=C/C(=O)Nc1ccc(C(=O)N2CCCC(Nc3ncc(Cl)c(-c4c[nH]c5ccccc45)n3)C2)cc1` (stereo unspecified), the % of control in test [5] is 78%. In turn, `COc1cc(Nc2nc(C)cc(-c3cnn4nc(OC)ccc34)n2)cc(C(F)(F)F)c1` showed a % of control in [6] of 87%. As for `CCC(=O)N1CC[C@H](Nc2ncnc3c2CN(c2cnc(OC)c(C(F)(F)F)c2)CC3)C1` [LENIOLISIB], the negative-log IC50 (pIC50) in test [7] is below 4.52. On to `O[C@H]1CC[C@H](Nc2ncc3nc(Nc4c(F)cc(F)cc4F)n([C@H]4CCOC4)c3n2)CC1`, for which, in test [8], the % of control was determined as 100%. `CCC(=O)N1CCN(c2ccc(-n3c(=O)ccc4cnc5ccc(-c6cnc7ccccc7c6)cc5c43)cc2C(F)(F)F)CC1`: the % of control in test [9] worked out at 91%. As for `CC(C)(O)[C@H](F)CN1Cc2cc(NC(=O)c3cnn4cccnc34)c(N3CCOCC3)cc2C1=O`, in [10], the dTM is 0.3 K. In turn, `Nc1cnc(N2CCc3cc(S(=O)(=O)Nc4c(F)cc(Cl)cc4F)cc(N4CCCC4=O)c32)nc1` [TP-020n] gave a % of control in test [11] of 86%. Besides, the % of inhibition in test [12] was 0.99%. `COc1cc(N(C)c2ccnc3ccc(C(F)(F)F)cc23)cc(OC)c1OC` gave a % binding in [13] of 90%.

For `C=CC(=O)Nc1ccc(C(=O)Nc2[nH]nc3c2CN(C(=O)N[C@H](CN(C)C)c2ccccc2)C3(C)C)cc1`, the % of engagement in test [14] is -20.7%.

By pIC50 is commonly meant the IC50 on a negative log10 scale, so that one unit is a factor of ten.
